Test results taken from US20040005354A1, “Oral trimethobenzamide formulations and methods” (King Pharmaceuticals, Inc., priority 2002, published 2004).
Like-named read-outs stand apart in the source and are kept apart here.

How the values were obtained:
[1] = Safety assessment (adverse events, laboratory tests) in the four-way crossover study; format: in vivo, human (healthy subjects)
Text: Seventy-four healthy, non-smoking, male & female subjects, 18-65 years old were enrolled in this study. A total of 68 subjects completed all the requirements of the protocol. There were no enrollment violations. However, nine of the 74 subjects began the study during the third period of the initial group of subjects. All 74 subjects who received at least one dose of study medication were included in the safety analysis.
This study was a single center, randomized, open-label, 4-way crossover study in healthy subjects. Dosing was administered in the fasted state. Seventy-four (74) subjects were randomized into the study. All seventy-four subjects received one or more doses of study medication and are therefore included in the safety assessment. On Treatment Day 1 of the first treatment period, each subject was randomized to receive one of four possible study treatment sequences. The treatment groups consisted of the four treatments administered sequentially as DCAB, ADBC, BACD or CBDA. These treatments are shown below.
A signed informed consent was obtained from each subject. For screening purposes, the following procedures were required of each subject and were performed by the clinical site within 30 days prior to the study: a complete physical examination including a medical history, vital signs, clinical laboratory safety tests on blood and urine, medications taken prior to and during the study, and a serum pregnancy test for female subjects.
During the treatments, temperature, blood pressure, heart rate and respiratory rate were monitored as a safety measure. A physical examination and clinical laboratory tests were repeated at the completion of the study. Subjects were observed and questioned throughout the study for the occurrence of any adverse events.
A total of 28 adverse events (AEs) were experienced; 27 were treatment emergent. Twenty-one (21) of these were assessed as related to study treatment. All related AEs are known to occur with trimethobenzamide and were primarily mild or moderate in intensity. One (1) severe AE occurred in one subject which was judged as unrelated to study treatment-severe pharyngitis. […] A summary of treatment emergent adverse events (AEs) is presented in Table 6 using the preferred medical term.

[2] = cited from earlier work
[3] = in 48-72 hr; cited from earlier work

## N-[2-(dimethylamino)-ethoxy]-3,4,5-trimethoxybenzamide hydrochloride [trimethobenzamide hydrochloride]
[1]; sequence B A C D (N = 18)
  PHARYNGITIS, subjects %: 0.0%
  PHARYNGITIS, subjects n: 0
  RASH, subjects %: 5.6%
  RASH, subjects n: 1
[1]; sequence C B D A (N = 18)
  ABDOMINAL PAIN, subjects %: 0.0%
  ABDOMINAL PAIN, subjects n: 0
  CONJUNCTIVITIS, subjects %: 0.0%
  CONJUNCTIVITIS, subjects n: 0
  DIARRHEA, subjects %: 5.6%
  DIARRHEA, subjects n: 1
  DIZZINESS, subjects %: 0.0%
  DIZZINESS, subjects n: 0
  EDEMA, PALMAR, subjects %: 0.0%
  EDEMA, PALMAR, subjects n: 0
  ERYTHEMA, EXTERNAL NOSE, subjects %: 5.6%
  ERYTHEMA, EXTERNAL NOSE, subjects n: 1
  ERYTHEMA, PALMAR, subjects %: 0.0%
  ERYTHEMA, PALMAR, subjects n: 0
  HEADACHE, subjects %: 16.7%
  HEADACHE, subjects n: 3
  HYPOTONIA, subjects %: 5.6%
  HYPOTONIA, subjects n: 1
  INJECTION SITE REACTION, subjects %: 0.0%
  INJECTION SITE REACTION, subjects n: 0
  LARYNGISMUS, subjects %: 0.0%
  LARYNGISMUS, subjects n: 0
  LEG CRAMPS, subjects %: 0.0%
  LEG CRAMPS, subjects n: 0
  NAUSEA AND VOMITING, subjects %: 0.0%
  NAUSEA AND VOMITING, subjects n: 0
  NAUSEA, subjects %: 0.0%
  NAUSEA, subjects n: 0
  Number of Subject With At Least one AE, %: 22.2%
  Number of Subject With No AE, %: 77.8%
  PARESTHESIA, subjects %: 0.0%
  PARESTHESIA, subjects n: 0
  PHARYNGITIS, subjects %: 0.0%
  PHARYNGITIS, subjects n: 0
  RASH, subjects %: 0.0%
  RASH, subjects n: 0
[1]; sequence D C A B (N = 18)
  ABDOMINAL PAIN, subjects %: 0.0%
  ABDOMINAL PAIN, subjects n: 0
  CONJUNCTIVITIS, subjects %: 0.0%
  CONJUNCTIVITIS, subjects n: 0
  DIARRHEA, subjects %: 0.0%
  DIARRHEA, subjects n: 0
  DIZZINESS, subjects %: 0.0%
  DIZZINESS, subjects n: 0
  EDEMA, PALMAR, subjects %: 0.0%
  EDEMA, PALMAR, subjects n: 0
  ERYTHEMA, EXTERNAL NOSE, subjects %: 0.0%
  ERYTHEMA, EXTERNAL NOSE, subjects n: 0
  ERYTHEMA, PALMAR, subjects %: 0.0%
  ERYTHEMA, PALMAR, subjects n: 0
  HEADACHE, subjects %: 16.7%
  HEADACHE, subjects n: 3
  HYPOTONIA, subjects %: 0.0%
  HYPOTONIA, subjects n: 0
  INJECTION SITE REACTION, subjects %: 0.0%
  INJECTION SITE REACTION, subjects n: 0
  LARYNGISMUS, subjects %: 0.0%
  LARYNGISMUS, subjects n: 0
  LEG CRAMPS, subjects %: 5.6%
  LEG CRAMPS, subjects n: 1
  NAUSEA AND VOMITING, subjects %: 0.0%
  NAUSEA AND VOMITING, subjects n: 0
  NAUSEA, subjects %: 0.0%
  NAUSEA, subjects n: 0
  Number of Subject With At Least one AE, %: 27.8%
  Number of Subject With No AE, %: 72.2%
  PARESTHESIA, subjects %: 5.6%
  PARESTHESIA, subjects n: 1
  PHARYNGITIS, subjects %: 0.0%
  PHARYNGITIS, subjects n: 0
  RASH, subjects %: 0.0%
  RASH, subjects n: 0
[2]; IM
  DURATION: 2 to 3 h
  ONSET: 15 to 35 min
[2]; PO
  DURATION: 3 to 4 h
  ONSET: 10 to 40 min
[2]; Rect
  DURATION: 3 to 4 h
  ONSET: 10 to 40 min
[3]
  drug excreted unchanged in the urine: 30%-50%
